Source: ChEMBL document CHEMBL1156803, “Novel 3-arylideneindolin-2-ones as inhibitors of NAD+ -dependent histone deacetylases (sirtuins)” (J Med Chem, 2010)
Active and inactive are the calls of the source. No cut-off for these calls is given here.

Experiments:
[1] = molecular target: T1, NAD-dependent protein deacetylase sirtuin-1 (Homo sapiens) (UniProt Q96EB6); test: Inhibition of human recombinant N-terminally GST-tagged SIRT1 at 50 uM after 4 hrs in presence of NAD+ by fluorescent deacetylase assay
T1 sequence (whole entry): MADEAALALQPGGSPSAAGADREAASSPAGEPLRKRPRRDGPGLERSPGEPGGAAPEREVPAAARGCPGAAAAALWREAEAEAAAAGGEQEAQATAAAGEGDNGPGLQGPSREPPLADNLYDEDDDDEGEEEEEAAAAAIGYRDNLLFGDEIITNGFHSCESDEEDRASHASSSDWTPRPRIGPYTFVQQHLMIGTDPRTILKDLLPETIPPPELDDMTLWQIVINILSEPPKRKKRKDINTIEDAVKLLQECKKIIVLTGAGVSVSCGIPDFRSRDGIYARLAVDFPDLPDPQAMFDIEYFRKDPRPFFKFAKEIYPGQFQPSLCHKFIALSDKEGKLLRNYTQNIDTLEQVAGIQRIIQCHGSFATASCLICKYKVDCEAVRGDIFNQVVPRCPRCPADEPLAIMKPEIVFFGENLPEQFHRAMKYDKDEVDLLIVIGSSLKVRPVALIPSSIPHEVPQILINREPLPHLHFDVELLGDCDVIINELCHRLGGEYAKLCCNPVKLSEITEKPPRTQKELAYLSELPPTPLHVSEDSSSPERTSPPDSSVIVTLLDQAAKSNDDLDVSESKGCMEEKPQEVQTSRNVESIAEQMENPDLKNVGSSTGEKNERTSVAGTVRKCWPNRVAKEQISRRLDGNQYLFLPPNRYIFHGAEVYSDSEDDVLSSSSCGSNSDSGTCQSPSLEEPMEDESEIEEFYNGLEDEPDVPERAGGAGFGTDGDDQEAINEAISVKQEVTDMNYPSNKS

[2] = molecular target: T2, NAD-dependent protein deacetylase sirtuin-2 (Homo sapiens) (UniProt Q8IXJ6); test: Inhibition of human recombinant N-terminally 6X-His-tagged SIRT2 at 50 uM after 4 hrs in presence of NAD+ by fluorescent deacetylase assay
T2 sequence (whole entry): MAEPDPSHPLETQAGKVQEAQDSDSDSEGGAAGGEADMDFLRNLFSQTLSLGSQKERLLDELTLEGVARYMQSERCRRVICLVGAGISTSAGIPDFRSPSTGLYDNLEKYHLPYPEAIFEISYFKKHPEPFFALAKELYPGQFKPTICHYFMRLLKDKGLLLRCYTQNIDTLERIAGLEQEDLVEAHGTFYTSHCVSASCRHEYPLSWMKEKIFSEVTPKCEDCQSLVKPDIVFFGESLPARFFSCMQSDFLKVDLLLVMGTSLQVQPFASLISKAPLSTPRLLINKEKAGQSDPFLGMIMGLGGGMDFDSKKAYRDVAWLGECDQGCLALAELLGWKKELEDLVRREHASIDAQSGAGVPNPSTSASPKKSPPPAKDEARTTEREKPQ

[3] = molecular target: T3, NAD-dependent protein deacetylase sirtuin-3, mitochondrial (Homo sapiens) (UniProt Q9NTG7); test: Inhibition of human recombinant N-terminally 6X-His-tagged SIRT3 at 50 uM after 4 hrs in presence of NAD+ by fluorescent deacetylase assay
T3 sequence (whole entry): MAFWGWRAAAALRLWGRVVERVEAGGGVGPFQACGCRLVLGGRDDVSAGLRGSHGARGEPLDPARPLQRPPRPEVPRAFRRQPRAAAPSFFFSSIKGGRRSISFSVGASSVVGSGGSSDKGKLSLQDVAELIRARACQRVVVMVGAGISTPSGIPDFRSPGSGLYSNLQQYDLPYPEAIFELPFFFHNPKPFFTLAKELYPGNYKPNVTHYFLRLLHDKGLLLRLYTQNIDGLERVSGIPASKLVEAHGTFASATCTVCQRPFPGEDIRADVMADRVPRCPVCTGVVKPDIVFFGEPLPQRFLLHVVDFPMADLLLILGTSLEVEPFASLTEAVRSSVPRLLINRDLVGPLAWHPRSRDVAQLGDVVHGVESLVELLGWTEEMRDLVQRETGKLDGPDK

[4] = molecular target: T2, NAD-dependent protein deacetylase sirtuin-2 (Homo sapiens); test: Inhibition of SIRT2 in human HepG2 cells assessed as alpha-tubulin hyperacetylation after 6 hrs by ELISA; assay type: cell-based
[5] = molecular target: T4, NAD-dependent protein deacetylase sirtuin-2 (Homo sapiens, UniProt Q8IXJ6); test: Inhibition of human recombinant N-terminally 6X-His-tagged SIRT2 after 4 hrs in presence of NAD+ by fluorescent deacetylase assay
T4 sequence (Q8IXJ6 whole entry): T2 sequence (whole entry)

HepG2 = test: Toxicity in human HepG2 cells after 6 hrs; assay type: cell-based; settings: hepg2, 6 h
[6] = molecular target: T5, NAD-dependent protein deacetylase sirtuin-1 (Homo sapiens, UniProt Q96EB6); test: Inhibition of human recombinant N-terminally GST-tagged SIRT1 after 4 hrs in presence of NAD+ by fluorescent deacetylase assay
T5 sequence (Q96EB6 whole entry): T1 sequence (whole entry)

[7] = molecular target: T2, NAD-dependent protein deacetylase sirtuin-2 (Homo sapiens); test: Inhibition of SIRT2 in human MCF7 cells assessed as tubulin hyperacetylation at 0.1 uM after 16 hrs by Western blot; assay type: cell-based
[8] = molecular target: T2, NAD-dependent protein deacetylase sirtuin-2 (Homo sapiens); test: Inhibition of SIRT2 in human MCF7 cells assessed as tubulin hyperacetylation at 10 uM after 16 hrs by Western blot; assay type: cell-based

For `O=C1Nc2c(ccc(Cl)c2Cl)/C1=C/c1ccc(C(F)(F)F)cc1`, which inhibition [1] is on record?
The inhibition was 45.4%.

What about the inhibition [2] of the same compound?
The inhibition was 18.3%.

What about the inhibition [3] of the same compound?
Its inhibition is less than 10%.

For `O=C1Nc2c(ccc(Cl)c2Cl)/C1=C/c1cc(Br)c(O)c(Br)c1`, which Activity [4] is on record?
The Activity was “Active”.

And the IC50 [5]?
Its IC50 is 28.4 µM.

What about the Activity (HepG2) of the same compound?
The Activity was “Non-toxic”.

What about the IC50 [6] of the same compound?
The IC50 was 40.6 µM.

For `O=C1Nc2c(ccc(Cl)c2Cl)/C1=C/c1ccc(F)cc1`, which inhibition [1] is on record?
The inhibition was 24.4%.

And the Activity [4]?
The Activity was “inactive”.

What about the Activity (HepG2) of the same compound?
The Activity was “Non-toxic”.

What about the inhibition [3] of the same compound?
The inhibition was less than 10%.

How did the inhibition [1] turn out when `CN(C)c1ccc(/C=C2\C(=O)Nc3c2ccc(Cl)c3Cl)cc1` was run?
The inhibition was 20.7%.

What about the inhibition [2] of the same compound?
The inhibition was less than 10%.

And the inhibition [3]?
The inhibition was less than 10%.

How did the inhibition [1] turn out when `Cc1cc(C)c(/C=C2\C(=O)Nc3c2ccc(Cl)c3Cl)[nH]1` was run?
Its inhibition is 19.9%.

And the inhibition [3]?
Its inhibition is less than 10%.

How did the inhibition [1] turn out when `CCN(CC)CCNC(=O)c1c(C)[nH]c(/C=C2\C(=O)Nc3ccc(F)cc32)c1C` [SUNITINIB] was run?
Its inhibition is less than 10%.

And the IC50 [5]?
The IC50 was 123 µM.

What about the inhibition [3] of the same compound?
Its inhibition is 26.4%.

What does the source list for `O=C1Nc2c(ccc(Cl)c2Cl)/C1=C\c1ccccn1`?
inhibition [1]: 22.7%; inhibition [2]: 20.6%; inhibition [3]: < 10%

For `CC(/C=C/C(=O)NO)=C\[C@@H](C)C(=O)c1ccc(N(C)C)cc1`, which Activity [7] is on record?
Its Activity is “Active”.

`Cn1c2c(Cl)c(Cl)ccc2c2cc[nH]c(=O)c21` [BAUERINE C] was tested. Which inhibition [1] did it give?
The inhibition was less than 10%.

And the inhibition [3]?
The inhibition was less than 10%.

Which inhibition [1] does the source give for `O=C1Nc2c(ccc(Cl)c2Cl)/C1=C/c1ccc(O)cc1` here?
The inhibition was less than 10%.

What about the inhibition [2] of the same compound?
Its inhibition is 34.7%.

What about the inhibition [3] of the same compound?
Its inhibition is 13.5%.

`O=C1Nc2c(ccc(Cl)c2Cl)/C1=C/c1ccc([N+](=O)[O-])cc1` was tested. Which inhibition [1] did it give?
The inhibition was 30.2%.

What about the IC50 [5] of the same compound?
The IC50 was 10.4 µM.

And the inhibition [3]?
The inhibition was less than 10%.

For `COc1cc(/C=C2\C(=O)Nc3c2ccc(Cl)c3Cl)cc(OC)c1OC`, which inhibition [1] is on record?
The inhibition was less than 10%.

What about the inhibition [2] of the same compound?
Its inhibition is less than 10%.

What about the inhibition [3] of the same compound?
The inhibition was less than 10%.

`Cn1cc(C2=C(c3cn(CCCSC(=N)N)c4ccccc34)C(=O)NC2=O)c2ccccc21` was tested. Which Activity [8] did it give?
The Activity was “Active”.

For `O=C1Nc2c(ccc(Cl)c2Cl)/C1=C/c1cc(C(F)(F)F)cc(C(F)(F)F)c1`, which inhibition [1] is on record?
The inhibition was 19.8%.

And the inhibition [3]?
Its inhibition is less than 10%.

How did the inhibition [1] turn out when `O=C1Nc2c(ccc(Cl)c2Cl)/C1=C\c1ccncc1` was run?
The inhibition was 19.6%.

And the inhibition [2]?
The inhibition was 16.5%.

And the inhibition [3]?
Its inhibition is less than 10%.
